Test [1] in a line: Inhibition of rifamycin-resistant Mycobacterium tuberculosis RNA polymerase S450L mutant after 10 mins by rolling circle transcription assay in presence of DNA nanocircle template NC45.
Test [2] can be described thus: Inhibition of rifamycin-resistant Mycobacterium tuberculosis RNA polymerase H445Y mutant after 10 mins by rolling circle transcription assay in presence of DNA nanocircle template NC45.
The nature of test [3]: Inhibition of rifamycin-resistant Mycobacterium tuberculosis RNA polymerase D435V mutant after 10 mins by rolling circle transcription assay in presence of DNA nanocircle template NC45.

The IC50 is the concentration that gives 50% inhibition.

As for `CO[C@H]1/C=C/O[C@@]2(C)Oc3c(C)c(O)c4c(O)c(c(/C=N/N5CCN(C)CC5)c(O)c4c3C2=O)NC(=O)/C(C)=C\C=C\[C@H](C)[C@H](O)[C@@H](C)[C@@H](O)[C@@H](C)[C@H](OC(C)=O)[C@@H]1C` [RIFAMPIN], the IC50 came out at 109 µM in test [1], 610 µM in test [2] and 465 µM in test [3].

(Values after ChEMBL document CHEMBL2380284, “X-ray crystal structures of the Escherichia coli RNA polymerase in complex with benzoxazinorifamycins” (J Med Chem, 2013).)
